Experimental findings from patent publication US9296709B2, “Manufacture of 2-(5-bromo-4-(4-cyclopropylnaphthalen-1-yl)-4H-1,2,4-triazol-3-ylthio)acetic acid” (ARDEA BIOSCIENCES, INC., priority 2012, dated 2016) are described below.

The nature of series [1]: Solid held in equilibrium with its saturated acetone solution at 60° C. The class given is physicochemical. The settings on record: 60° C. for 6 days.
Series [2] in a line: Gravimetric vapor sorption (GVS) study. The format is physicochemical. An excerpt: FIG. 12 illustrates a GVS study of form 1 and form 2. […] This property of decreased hygroscopicity greatly aids in the preparation of solid pharmaceutical dosage forms.
The nature of series [3]: Solubility in acetate buffer (25 mM, pH 5), assayed by HPLC. The settings on record: acetate buffer 25 mM pH 5, 25° C.; for solubility at 1 day: acetate buffer, 25 °C, pH 5, aqueous buffer, thermodynamic from solid. The class given is physicochemical. As for the experimental part:
Form 1 (˜25 mg) and acetate buffer (25 mM, pH 5, 4 mL), prepared with and without sodium chloride (ionic strength adjusted to =0.1M), were placed in a glass vial which was sealed and placed on a laboratory rotator in a 25° C. incubator. After 1, 5, and 7 days the samples were filtered and assayed by HPLC.
Form 2 (˜25 mg) and acetate buffer (25 mM, pH 5, 4 mL), prepared with and without sodium chloride (ionic strength adjusted to =0.1M), were placed in a glass vial which was sealed and placed on a laboratory rotator in a 25° C. incubator. After 1, 5, and 7 days the samples were filtered and assayed by HPLC.

Series [4] is described as follows: Drug substance stability of packaged polymorph under accelerated / long term storage conditions. The settings on record: for degradation of packaged drug substance: double LDPE bag, heat sealed foil bag, HDPE container.
Description: Form 2 of 2-(5-bromo-4-(4-cyclopropylnaphthalen-1-yl)-4H-1,2,4-triazol-3-ylthio)acetate was tested under various conditions to determine drug substance stability. […] Packaging was in a double low density polyethylene plastic bags inside a HDPE container.

Values after ≈ are worked out from the molar mass of the structure shown.

As for `O=C(O)CSc1nnc(Br)n1-c1ccc(C2CC2)c2ccccc12` [Form 1, 2-(5-bromo-4-(4-cyclopropylnaphthalen-1-yl)-4H-1,2,4-triazol-3-ylthio)acetic acid], the “outcome of equilibration with saturated acetone solution” value in series [1] was “decomposition”. The “adsorbed at high humidity (GVS)” value in series [2] is on record as under 0.2 % w/w. The compound also yielded a solubility at 1 day in series [3] (Form 1, NaCl (I = 0.1), Day 1) of 300 µg/mL (≈ 741 µM).

As to `O=C(O)CSc1nnc(Br)n1-c1ccc(C2CC2)c2ccccc12` [Form 2, 2-(5-bromo-4-(4-cyclopropylnaphthalen-1-yl)-4H-1,2,4-triazol-3-ylthio)acetic acid], the “adsorbed at high humidity (GVS)” value in series [2] is under 0.1 % w/w. The solubility in series [3] (Form 2, NaCl (I = 0.1), Day5, sample pH 4.83) is on record as 0.2441 (pH 4.83) mg/mL; in series [3] (Form 2, NaCl (I = 0.1), Day 7, sample pH 4.85), 0.2157 (pH 4.85) mg/mL; in series [3] (Form 2, No NaCl, Day 1, sample pH 4.91), 0.1867 (pH 4.91) mg/mL; in series [3] (Form 2, No NaCl, Day5, sample pH 4.73) it was 0.1957 (pH 4.73) mg/mL; in series [3] (Form 2, No NaCl, Day 7, sample pH 4.79), 0.1337 (pH 4.79) mg/mL. For the same compound, the solubility at 1 day in series [3] (Form 2, NaCl (I = 0.1), Day 1) is 219 µg/mL (≈ 542 µM).

Turning to `O=C([O-])CSc1nnc(Br)n1-c1ccc(C2CC2)c2ccccc12.[Na+]` [Form A, sodium 2-(5-bromo-4-(4-cyclopropylnaphthalen-1-yl)-4H-1,2,4-triazol-3-ylthio)acetate], the “stability in comparison to the amorphous solid state form of the carboxylic acid” value in series [4] is “improvement over the solid state amorphous free acid”. In addition, the “degradation of packaged drug substance” value in series [4] (6 months, accelerated conditions 40° C.-75% RH) was “No degradation”; in series [4] (12 months, long term conditions 25° C.-60% RH), “no degradation”.
